{"source": "patent US8268961B2", "about": "“Antibacterial peptides and analogues thereof” (Universita Degli Studi di Siena, priority 2004, dated 2012)", "assay": "LPS binding by Plasmon Surface Resonance (Biacore)", "conditions": "M6 immobilised on BIACORE sensorchip", "procedure": "FIG. 11. Binding analysis between MAP M6 peptide and LPS in BIACORE. […] On the y-axis are shown the Units of Response derived from the binding between LPS and M6 as a function of time expressed in seconds (on the x-axis)\nThe ability of MAP peptides to perforate the bacterial membrane was evaluated measuring the activity of cytoplasmatic beta-galactosidase (24) in surpernatants of E. coli strain ML-35 incubated with the peptide and using p-nitrophenyl-β-D-galactopyranoside (pNPG) as a substrate. pNPG is digested by beta-galactosidase, therefore releasing p-nitro-phenolate detectable by spectrophotometric reading at 420 nm (FIG. 10). […] The activity of dendrimeric peptides against the inner membrane was evaluated at concentrations of 16, 32 and 64 μg/ml. All dendrimeric peptides permeabilized bacterial inner membrane at 16 μg/ml (FIG. 9). Permeabilization occurred after a lag of less than 1 minute, and the rate of permeabilization depended on peptide concentration (not shown). Moreover, the ability of the M6 MAP peptide to bind the bacterial lipopolysaccharide (LPS) was assayed by Plasmon Surface Resonance in a Biacore 1000 instrument (FIG. 11) using a protocol perfected by the authors (26).", "note": "Entries after “also recorded” stand apart in the source; their conditions may differ. Positions of bridges follow the written chain, without caps; N, C: chain ends. Chains are numbered I, II in the order given. No end group written: not given here.", "data": [{"substance": "I: QKKIRVRLSAKKA-OH / II: QKKIRVRLSAK / III: QKKIRVRLSA / IV: QKKIRVRLSA (amide I:11-IV:C, I:12-II:C, II:11-III:C) [M6, QKKIRVRLSA]", "values": [{"measurement": "Binding to bacterial lipopolysaccharide (LPS), sensorgram", "value": "effectively binds; also recorded: rapid binding"}]}]}
